Measurements as given in publication PMC4706532, “Diarylthiophenes as inhibitors of the pore-forming protein perforin” (Bioorganic & Medicinal Chemistry Letters, 2016).
In brackets after ≈: the same amount, converted by molar mass.

target: T1, recombinant perforin (Mus musculus, UniProt P10820); experiment: Inhibition of perforin-mediated lysis of Jurkat cells (51Cr release); settings: isolated perforin
T1 sequence (P10820 21-554): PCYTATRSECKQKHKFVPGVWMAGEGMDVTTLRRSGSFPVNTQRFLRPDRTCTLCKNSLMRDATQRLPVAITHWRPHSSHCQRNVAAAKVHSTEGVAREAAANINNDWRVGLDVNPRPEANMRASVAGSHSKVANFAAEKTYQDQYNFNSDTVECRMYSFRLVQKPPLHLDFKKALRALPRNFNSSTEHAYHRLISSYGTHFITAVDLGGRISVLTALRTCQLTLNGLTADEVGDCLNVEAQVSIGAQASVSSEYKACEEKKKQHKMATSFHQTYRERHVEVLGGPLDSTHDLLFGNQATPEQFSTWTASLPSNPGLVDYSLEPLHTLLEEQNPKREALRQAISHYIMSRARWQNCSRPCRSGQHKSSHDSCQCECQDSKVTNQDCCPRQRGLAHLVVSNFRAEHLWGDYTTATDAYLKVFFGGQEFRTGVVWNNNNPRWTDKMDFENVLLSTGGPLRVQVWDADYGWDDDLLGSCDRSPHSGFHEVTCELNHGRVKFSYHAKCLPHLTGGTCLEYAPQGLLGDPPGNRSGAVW
Description: The ability of the compounds to inhibit the lysis of nucleated (Jurkat T lymphoma) cells in the presence of 0.1% BSA, as measured by release of ^51Cr was measured. Jurkat target cells were labelled by incubation in medium with 100 µCi ^51Cr for one hour. The cells were then washed three times to remove unincorporated isotope and re-suspended at 1 x 10^5 cells per mL in RPMI buffer supplemented with 0.1% BSA. Each test compound was pre-incubated to concentrations of 20, 10, 5, 2.5 and 1.25 µM with recombinant perforin for 30 min with DMSO as a negative control. ^51Cr labelled Jurkat cells were then added and cells were incubated at 37 °C for 4 h. The supernatant was collected and assessed for its radioactive content on a gamma counter (Wallac Wizard 1470 automatic gamma counter). Each data point was performed in triplicate and an IC50 was calculated from the range of concentrations described to above.

Inhibition of perforin lytic activity in Jurkat assay (in words)	SMILES
no detectable inhibition	COc1ccccc1-c1ccc(-c2ccc3c(c2)COC3=O)s1 [Compound 13]
loses all activity	O=C1OCc2cc(-c3ccc(-c4ccc(O)cc4)s3)ccc21 [Compound 19]
no detectable inhibition	COc1cccc(-c2ccc(-c3ccc4c(c3)COC4=O)s2)c1 [Compound 14]

Continued, molecule first:

SMILES	Inhibition of perforin lytic activity in Jurkat assay (in words)
CNC(=O)c1ccc(-c2ccc(-c3ccc4c(c3)COC4=O)s2)cc1 [Compound 29]	loss of efficacy
CN(C)C(=O)c1ccc(-c2ccc(-c3ccc4c(c3)COC4=O)s2)cc1 [Compound 30]	abolishes activity completely
CN(C)CCCNC(=O)c1ccc(-c2ccc(-c3ccc4c(c3)COC4=O)s2)cc1 [Compound 32]	poor activity or were inactive
CN1Cc2cc(-c3ccc(-c4ccc(C(N)=O)cc4)s3)ccc2C1=O [Compound 23b]	loss of activity
CN1CCN(C(=O)c2ccc(-c3ccc(-c4ccc5c(c4)COC5=O)s3)cc2)CC1 [Compound 31]	abolishes activity completely
Nc1cc(-c2ccc(-c3ccc4c(c3)COC4=O)s2)ccc1C(=O)NCCN1CCOCC1 [Compound 56]	poor activity or were inactive
O=C(NCCN1CCOCC1)c1ccc(-c2ccc(-c3ccc4c(c3)COC4=O)s2)cc1O [Compound 49]	poor activity or were inactive
CN(C)CCNC(=O)c1ccc(-c2ccc(-c3ccc4c(c3)COC4=O)s2)cc1O [Compound 50]	poor activity or were inactive
CN(C)CCNC(=O)c1ccc(-c2ccc(-c3ccc4c(c3)COC4=O)s2)cc1N [Compound 57]	poor activity or were inactive
NC(=O)c1ccc(-c2ccc(-c3ccc4c(c3)CNC4=O)s2)cc1 [Compound 23a]	loss of activity
O=C1OCc2cc(-c3ccc(-c4ccc5c(c4)COC5=O)s3)ccc21 [Compound 71]	only moderately potent
N#Cc1cccc(-c2ccc(-c3ccc4c(c3)COC4=O)s2)c1 [Compound 20]	activity is lost altogether

test system: perforin delivered by KHYG-1 NK cells; experiment: KHYG-1 cytotoxicity assay: lysis of K562 target cells by KHYG-1 NK cells (51Cr release); format: cell-based, human; settings: Homo sapiens, KHYG-1 NK, read-out: KHYG-1 inhibition (% at 20 μM), compound 20 μM; perforin-induced lysis of K562 target cells co-incubated with KHYG-1 human NK cells; vs untreated control
Description: (§1) The compounds were then evaluated for their ability to block the effect of perforin delivered by whole KHYG-1 NK cells (Table 2). Employing whole NK cells is a more rigorous model of conditions in vivo than the use of isolated recombinant protein since effector cell identification of the labelled target cell and formation of an immune synapse are required for perforin release. […] After co-incubation of inhibitor with KHYG-1 NK cells in medium for 30 min at room temperature, ^51Cr-labelled K562 leukaemia target cells were added and cell lysis evaluated after 4 h incubation at 37 °C by measuring ^51Cr release. […] Viable and dead cells were counted and percent viability calculated based on total cell count (for further details see Supplementary data). […] For the purposes of this work, compounds are classified as toxic if NK cell viability falls below 70%. This is due to the importance of CTLs and NK cells in the overall immunological response which means that it is essential that any pharmacological intervention allows rapid recovery of these cytotoxic effector cells for normal immunological function.
KHYG-1 cells were washed and re-suspended in RPMI + 0.1% BSA at 4 × 10^5 cells/mL, and an amount of 50 μL of KHYG-1 cells was dispensed to each well of a 96-well V-bottom plate. RPMI (50 μL) + 0.1% BSA or 10% (final concentration) of serum was added to each well. Then test compounds were added to KHYG-1 cells at various concentrations up to 20 μM and incubated at room temperature for […]. 1 × 10^6 K562 target cells were labelled with 75 μCi ^51Cr in 200 μL of RPMI for 90 min at 37 °C. Cells were washed as described above and re-suspended in 5 mL of RPMI + 0.1% BSA. An amount of 50 μL of ^51Cr labelled K562 leukaemia target cells was added to each well of the KHYG-1 plate (effector/target 2:1) and incubated at 37 °C for 4 h. ^51Cr release was assayed using a Skatron harvesting press and radioactivity estimated on a Wallac Wizard 1470 automatic γ counter (Turku, Finland). The percentage of specific cytotoxicity was calculated using the following formula:
% specific lysis = […]
(maximum release - spontaneous release)
and expressed as the mean of triplicate assays ± standard error of the mean.

SMILES	inhibition at 20 µM [%]
O=C1OCc2cc(-c3ccc(-c4ccc(CO)cc4)s3)ccc21 [Compound 59]	13

same assay, conditions: compound 20 μM; perforin-induced lysis of K562 target cells co-incubated with KHYG-1 human NK cells; vs untreated control

SMILES	KHYG-1 inhibition (% at 20 μM)
CS(=O)(=O)Nc1ccc(-c2ccc(-c3ccc4c(c3)COC4=O)s2)cc1 [Compound 63]	No activity

same assay, conditions: whole human NK cells, K562 targets

SMILES	Activity against perforin delivered by whole KHYG-1 NK cells (in words)
O=C1OCc2cc(-c3ccc(-c4ccc(CO)cc4)s3)ccc21 [Compound 59]	poor or no activity
CS(=O)(=O)Nc1ccc(-c2ccc(-c3ccc4c(c3)COC4=O)s2)cc1 [Compound 63]	poor or no activity

test system: not listed separately; experiment: Plasma stability, human plasma; format: in vitro ADME; settings: % parent remaining at 24 h, 37 °C
Description: (§2) Preliminary stability studies were carried out by incubation in human or mouse plasma at 37 °C with the percentage parent remaining measured at 24 h (Table 2). […] In mouse plasma the ratio of open to closed is 50:50%, while in human plasma this shifts to 90:10 due to the strong affinity of human serum albumin for the ring-opened form.[20] It is likely that the same phenomenon is operating in the present case and while not necessarily an issue for mouse studies, will need to be addressed in future work.
(§3) Incubation method - Mouse (CD-1, male) and human (pooled) plasma pH was adjusted to 7.4 with either 1M phosphoric acid or sodium hydroxide. Plasma was spiked with 100 uM of test compounds and divided into two parts; one part was immediately transferred to -80 °C (control), and the second part was incubated at 37 °C at 24 h.
(§4) At the end of the study duration, samples were transferred to -80 °C until ready to analyse by HPLC-DAD. On the day of analysis, control and incubated samples were thawed on wet ice and mixed.
(§5) Sample treatment for HPLC - 20 uL of samples were mixed with 80 uL (1:4 v/v) ice cold acetonitrile to precipitate the plasma proteins, centrifuged at 13,000 rpm for 5 min to obtain the clear supernatant. The supernatant was diluted with 0.01% formic acid– water (1:2 v/v) and 50 uL was injected onto the HPLC system (Agilent).
(§6) Calculation: The % loss was calculated based on peak area using the following formula: (peak area time “0”- peak area time “24h”)/peak area time “0” multiplied by 100. % Remaining = 100 - % loss.

SMILES	Plasma stability (% at 24 h) Human [%]
O=C1OCc2cc(-c3ccc(-c4ccc(CO)cc4)s3)ccc21 [Compound 59]	73
CS(=O)(=O)Nc1ccc(-c2ccc(-c3ccc4c(c3)COC4=O)s2)cc1 [Compound 63]	70

test system: not listed separately; experiment: Solubility in water; settings: not given

SMILES	Solubility (in words)
O=C1OCc2cc(-c3ccc(-c4ccc5c(c4)COC5=O)s3)ccc21 [Compound 71]	extremely insoluble

same assay, conditions: water

SMILES	solubility [µg/mL]
NC(=O)CNC(=O)c1ccc(-c2ccc(-c3ccc4c(c3)COC4=O)s2)cc1O [Compound 53]	4.7 (≈ 11.5 µM)
NC(=O)c1ccc(-c2ccc(-c3ccc4c(c3)COC4=O)s2)cc1N [Compound 55]	9.4 (≈ 26.8 µM)
O=C(NCCO)c1ccc(-c2ccc(-c3ccc4c(c3)COC4=O)s2)cc1O [Compound 51]	15.7 (≈ 39.7 µM)

test system: not given; experiment: not given; settings: not given

melting point [°C]	SMILES
276 to 279	O=C1OCc2cc(-c3ccc(-c4cccc(O)c4)s3)ccc21 [Compound 18]
231 to 233	O=C1OCc2cc(-c3ccc(-c4ccccc4)s3)ccc21 [Compound 6]
231 to 234	O=C1OCc2cc(-c3ccc(-c4ccc(Cl)cc4)s3)ccc21 [Compound 12]
207 to 209	O=C1OCc2cc(-c3ccc(-c4cccc(Cl)c4)s3)ccc21 [Compound 11]
131 to 133	O=C1OCc2cc(-c3ccc(-c4ccccc4Cl)s3)ccc21 [Compound 10]
192 to 194	Cc1cccc(-c2ccc(-c3ccc4c(c3)COC4=O)s2)c1 [Compound 8]
190 to 192	COc1ccccc1-c1ccc(-c2ccc3c(c2)COC3=O)s1 [Compound 13]
279 to 282	O=C1OCc2cc(-c3ccc(-c4ccc(O)cc4)s3)ccc21 [Compound 19]
165 to 167	COc1cccc(-c2ccc(-c3ccc4c(c3)COC4=O)s2)c1 [Compound 14]
184 to 186	Cc1ccc(-c2ccc(-c3ccc4c(c3)COC4=O)s2)cc1 [Compound 9]
109 to 111	Cc1ccccc1-c1ccc(-c2ccc3c(c2)COC3=O)s1 [Compound 7]

More lines, now with the values behind:

SMILES	melting point [°C]
COc1ccc(-c2ccc(-c3ccc4c(c3)COC4=O)s2)cc1 [Compound 15]	224 to 227
CNC(=O)c1ccc(-c2ccc(-c3ccc4c(c3)COC4=O)s2)cc1 [Compound 29]	299 to 302
O=C1OCc2cc(-c3ccc(-c4ccncc4)s3)ccc21 [Compound 70]	260 to 261
CN(C)C(=O)c1ccc(-c2ccc(-c3ccc4c(c3)COC4=O)s2)cc1 [Compound 30]	290 to 292
CCOC(=O)c1ccc(-c2ccc(-c3ccc4c(c3)COC4=O)s2)cc1O [Compound 40]	208 to 210
NC(=O)c1cccc(-c2ccc(-c3ccc4c(c3)COC4=O)s2)c1 [Compound 22]	259 to 263
NS(=O)(=O)c1cccc(-c2ccc(-c3ccc4c(c3)COC4=O)s2)c1 [Compound 61]	273 to 276
CN(C)CCCNC(=O)c1ccc(-c2ccc(-c3ccc4c(c3)COC4=O)s2)cc1 [Compound 32]	185 to 188
CN1Cc2cc(-c3ccc(-c4ccc(C(N)=O)cc4)s3)ccc2C1=O [Compound 23b]	287 to 290
CS(=O)(=O)c1ccc(-c2ccc(-c3ccc4c(c3)COC4=O)s2)cc1 [Compound 60]	278 to 280
Nc1cc(-c2ccc(-c3ccc4c(c3)COC4=O)s2)ccc1C(=O)NCCN1CCOCC1 [Compound 56]	209 to 211
CC(O)CNC(=O)c1ccc(-c2ccc(-c3ccc4c(c3)COC4=O)s2)cc1O (centres unmarked) [Compound 52]	241 to 244
CN(C)CCNC(=O)c1ccc(-c2ccc(-c3ccc4c(c3)COC4=O)s2)cc1O [Compound 50]	242 to 245
CN(C)CCNC(=O)c1ccc(-c2ccc(-c3ccc4c(c3)COC4=O)s2)cc1N [Compound 57]	185 to 188
CSc1ccc(-c2ccc(-c3ccc4c(c3)COC4=O)s2)cc1 [Compound 58]	239 to 241
CC(C)(C)NS(=O)(=O)c1ccc(-c2ccc(-c3ccc4c(c3)COC4=O)s2)cc1 [Compound 62]	255 to 257
N#Cc1cccc(-c2ccc(-c3ccc4c(c3)COC4=O)s2)c1 [Compound 20]	250 to 251

test system: not listed separately; experiment: Plasma stability, mouse plasma; format: in vitro ADME; settings: % parent remaining at 24 h, 37 °C
Description: as §2, §3, §4, §5, §6

SMILES	Plasma stability (% at 24 h) Mouse [%]
O=C1OCc2cc(-c3ccc(-c4ccc(CO)cc4)s3)ccc21 [Compound 59]	87
CS(=O)(=O)Nc1ccc(-c2ccc(-c3ccc4c(c3)COC4=O)s2)cc1 [Compound 63]	80

test system: not listed separately; experiment: Toxicity to KHYG-1 NK cells (Trypan blue exclusion); settings: human
Description: as §1
The toxicity assay was carried out in exactly the same manner as the killing assay above, but instead of adding the labelled K562 target cells, 100 μL of RPMI 0.1% BSA was added. Cells were incubated for 4 h at 37 °C and then washed ×3 in RPMI + 0.1% BSA. Cells were then re-suspended in 200 μL of complete medium and incubated for 18−24 h at 37 °C. Trypan blue was added to each well. Viable (clear) cells and total (clear + blue) cells were counted, and the percentage of viable cells was calculated compared to DMSO treated cell control (% viability).

SMILES	viability at 24 h, 20 µM [%]
O=C1OCc2cc(-c3ccc(-c4ccc(CO)cc4)s3)ccc21 [Compound 59]	79
